Measured values taken from patent US20170327779A1, “METHOD FOR PRODUCING CELL AGGREGATES” (Kaneka Corporation, priority 2015, published 2017).

How the values were obtained:
Assay type in all cases: cell-based
[1] = system: human iPS cells; assay: Effect of LPA or S1P on cell aggregation of human iPS cells in suspension culture, microscopic observation; details: for φ, width of the widest portion of cell aggregate (average±standard deviation): 1 day, 30 aggregates; for size of spherical cell aggregates: 0.2 μg/mL, BSA-ff 5 mg/mL, Y-27632 10 μM, 1 day suspension culture (FIG. 8)
Experimental: Human iPS cells that had been cultured using the protocol of Example 1 were treated with TrypLE Select, EDTA solution, or Accutase for 3 to 5 min and were detached. After dispersed as single cells, the cells were made to pass through a cell strainer with a pore size of 40 μm (Becton, Dickinson and Company) to monodisperse as single cells. The resulting cells were suspended in Essential 8™ medium containing a final concentration of 10 μM Y-27632 (Wako Pure Chemical Industries, Ltd.). A portion thereof was then stained with trypan blue and the number of cells was counted. Suspensions containing 2×10^5 cells per ml were prepared. To each cell suspension were added lipid-free bovine serum albumin (BSA-ff; CultureSure albumin, Wako Pure Chemical Industries, Ltd.) at a final concentration of 5 mg/mL and Y-27632 (Wako Pure Chemical Industries, Ltd.) at a final concentration of 10 μM. In addition, the following lipids were each added to the cell suspension and the cells were subjected to rotary shaking culture for 1 day under the same conditions as in Example 2 to culture human iPS cells in suspension. After one day of the suspension culture, the cells were observed under a microscope.
The lipids and additives used in this study are as follows: • LPA (Lysophosphatidic acid) (1-O-9Z-octadecenoyl-sn-glyceryl-3-phosphoric acid, a sodium salt, Cat. No. 62215, Cayman, Inc.; with an oleyl group at sn-1 position).
S1P (Sphingosine-1-phosphoric acid) (2S-amino-1-(dihydrogen phosphate)-4E-octadecene-1,3R-diol, Cat. No. 62570, Cayman, Inc.)
LPA at 0.2 μg/mL or S1P at 0.2 μg/mL was added to the human iPS cell suspension.
(§1) Human iPS cell suspensions were prepared using substantially the same protocol as in Example 5. LPA was added as a sodium salt at a concentration of 0.00128 μg/mL, 0.0064 μg/mL, 0.032 μg/mL, 0.16 μg/mL, 0.8 μg/mL, 4 μg/mL, 20 μg/mL, or 100 μg/mL. To each suspension were added BSA-ff at a final concentration of 5 mg/mL and Y-27632 (Wako Pure Chemical Industries, Ltd.) at a final concentration of 10 μM. The cells were cultured in suspension for 1 day under the same conditions as in Example 5 and then observed under a microscope.
Inspected were 30 cell aggregates on an observation image obtained when the concentration of LPA was from 0.16 to 100 μg/mL. While being compared using a micrograph scale, the width (referred to as “φ”) of the widest portion of each cell aggregate was measured to calculate an average±standard deviation.
as §1, with “[…]” for “LPA”, “free form” for “sodium salt”
Inspected were 30 cell aggregates on an observation image obtained when the concentration of S1P was from 0.032 to 100 μg/mL. While being compared using a micrograph scale, the width (referred to as “φ”) of the widest portion of each cell aggregate was measured to calculate an average±standard deviation. […]

[2] = system: human iPS cells; assay: Glucose consumption and total cell count of human iPS cells cultured in suspension with LPA or S1P; details: 0.2 or 1 μg/mL, compared with BSA-ff alone; for number of cells (total cell count): Day 5, n=3 (FIG. 13); for glucose consumption: Days 2 to 5, n=3 (FIG. 12)
Experimental: Human iPS cell suspensions were prepared using substantially the same protocol as in Example 5. To each cell suspension were added LPA or S1P at a final concentration of 0.2 μg/mL or 1 μg/mL, and BSA-ff at a final concentration of 5 mg/mL and Y-27632 (Wako Pure Chemical Industries, Ltd.) at a final concentration of 10 μM. As a control, cell suspensions were prepared using the same protocol as in Example 5. That is, prepared were the cell suspensions solely containing BSA-ff at a final concentration of 5 mg/mL and Y-27632 at a final concentration of 10 μM.
The above cell suspensions were subjected to suspension culture for […] under the same conditions as in Example 5. At Day 2 of culture, the culture medium was changed every day with Essential 8™ culture medium supplemented with 5 mg/mL BSA-ff. At Days 2, 3, 4, and 5, the concentration of glucose in the culture supernatant was measured to calculate glucose consumption. In addition, at Day 5 of culture, cell aggregates were collected, dispersed using Accutase, and suspended in Essential 8™ culture medium supplemented with 5 mg/mL BSA-ff. A portion of each cell suspension was stained with trypan blue and the number of cells was counted. The above cell suspensions were centrifuged at 300 g for 5 min, the supernatant was then removed, and the cells were washed with PBS (phosphate buffered saline). Next, the cells were fixed with 4% PFA (paraformaldehyde) at room temperature for 20 min, then washed 3 times with PBS, and permeabilized with cold methanol at −20° C. overnight. After washed 3 times with PBS, the cells were blocked with 3% FBS (fetal calf serum)/PBS and stained using a fluorescently labeled anti-SOX2 antibody (Cat. No. 656110, Biolegend, Inc.) and a fluorescently labeled anti-OCT4 antibody (Cat. No. 653703, Biolegend, Inc.) at 4° C. for 1 h. After washed once with 3% FBS (fetal calf serum)/PBS, the cells were made to pass through a cell strainer. The resulting cells were analyzed on FACSVerse.
The following procedure was used to measure glucose consumption. Specifically, the culture supernatant was recovered at medium change and a bioanalyzer (Y512950), manufactured by YSI, Inc., was used to measure the remaining glucose amount. In this way, the glucose consumption was calculated.
A total cell count was measured at Day 5 of culture. The following procedure was used to measure the total cell count. Specifically, the cell aggregates that had been formed were treated with TrypLE Select for 5 to 10 min, pipetted using a blue tip to monodisperse as cells, and stained with trypan blue. After that, the number of cells was counted using a hemocytometer to determine the total cell count.

[3] = system: human iPS cells; assay: Formation of aggregates of human iPS cells by rotary shaking suspension culture with KSR or its protein-based components; details: factor added instead of KSR; micrographs at Day 1 (FIG. 6)
Experimental: TkDN4-M cell line (Non-Patent Literature 1) was used as human iPS cells. The human iPS cells were seeded on cell culture dishes coated with Matrigel (Corning, Inc.) or Vitronectin (Life Technologies Japan Ltd.). A culture medium, which was mTeSR1 (STEMCELL Technologies, Inc.) or Essential 8™ (Life Technologies Japan Ltd.), was used for maintenance culture. As a cell detachment agent at the time of cell passage, TrypLE Select (Life Technologies Japan Ltd.) was used when the cells were cultured on Matrigel; and 0.02% EDTA (ethylene diamine tetraacetic acid) solution or Accutase (Life Technologies Japan Ltd.) was used when the cells were cultured on Vitronectin. In addition, when the cells were seeded, Y-27632 (Wako Pure Chemical Industries, Ltd.) at a concentration of 10 μM was added to a culture medium. The culture medium was changed every day. For experiments, human iPS cells (the number of passage was 50 or less) were used.
Human iPS cells were treated with TrypLE Select or EDTA solution for 3 to 5 min and were detached. After dispersed as single cells, the cells were made to pass through a cell strainer with a pore size of 40 μm (Becton, Dickinson and Company). […] A portion thereof was then stained with trypan blue and the number of cells was counted. […]

Molecule | φ, width of the widest portion of cell aggregate (average±standard deviation) ([1]; 0.16 μg/mL) | size of spherical cell aggregates [1] | φ, width of the widest portion of cell aggregate (average±standard deviation) ([1]; 0.8 μg/mL) | φ, width of the widest portion of cell aggregate (average±standard deviation) ([1]; 4 μg/mL) | φ, width of the widest portion of cell aggregate (average±standard deviation) ([1]; 20 μg/mL) | φ, width of the widest portion of cell aggregate (average±standard deviation) ([1]; 100 μg/mL) | diameter of cell aggregates ([1]; LPA 0.032 μg/mL or less, 1 day (FIG. 9)) | formation of cell aggregates ([1]; LPA 0.16 to 100 μg/mL, 1 day (FIG. 9)) | number of cells (total cell count) [2] | glucose consumption [2] | diameter of cell aggregates ([1]; S1P 0.0064 μg/mL or less, 1 day (FIG. 10)) | formation of cell aggregates ([1]; S1P 0.032 to 100 μg/mL, 1 day (FIG. 10)) | formation of aggregates [3]
1-O-9Z-octadecenoyl-sn-glyceryl-3-phosphoric acid, a sodium salt [LPA] | 124.9±26.5 μm | about 100 μm | 68.2±9.8 μm | 57.2±8.7 μm | 39.9±8.0 μm | 41.6±9.9 μm | ≥ 1 mm | cell aggregates with a substantially uniform size were formed | larger | larger | – | – | –
CCCCCCCCCCCCC/C=C/[C@@H](O)[C@@H](N)COP(=O)(O)O [S1P, 2S-amino-1-(dihydrogen phosphate)-4E-octadecene-1,3R-diol] | 142.4±16.4 μm | about 100 μm | 118.5±21.8 μm | 109.9±23.1 μm | 94.0±19.4 μm | 89.0±19.5 μm | – | – | larger | larger | ≥ 1 mm | cell aggregates with a substantially uniform size were formed | –
insulin: insulin (Sigma-Aldrich Co. LLC.), lipid-free protein-based component of KSR | – | – | – | – | – | – | – | – | – | – | – | – | large aggregates
transferrin: transferrin (Sigma-Aldrich Co. LLC.), lipid-free protein-based component of KSR | – | – | – | – | – | – | – | – | – | – | – | – | large aggregates
